“And” between values parts separate entries of the source, which are not always exact repeats. Identical values can stand only once. Results filed as inconclusive are left out.
Tested on: BDF1 mice, s.c. Lewis lung carcinoma, T/C %
Assay: NCI In Vivo Anticancer Drug Screen. Data for tumor model Lewis Lung Carcinoma (subcutaneous) in B6D2F1 (BDF1) mice
How it was run: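 Readout: survival or tumor size, expressed as treated (T) over vehicle control (C). Transplantable tumor implanted in mice; compound given to the treated group.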

**Q.** How did the T/C (endpoint: mean tumor weight, dose: 5.0 mg/kg/injection, schedule: Q01DX011 (ip), vehicle: carboxymethylcellulose (CMC), higher = larger tumour) turn out when `O=C(Nc1ccc(C2=NCCN2)cc1)c1ccc(C(=O)Nc2ccc(C3=NCCN3)cc2)c(Cl)c1` was run?
**A.** 73 % of control

**Q.** And the T/C (endpoint: mean tumor weight, dose: 10.0 mg/kg/injection, schedule: Q01DX011 (ip), vehicle: carboxymethylcellulose (CMC), higher = larger tumour)?
**A.** 51 % of control

**Q.** What about the T/C (endpoint: mean tumor weight, dose: 20.0 mg/kg/injection, schedule: Q01DX011 (ip), vehicle: carboxymethylcellulose (CMC), higher = larger tumour) of the same compound?
**A.** 81 % of control

**Q.** `COc1cc2ccc3c4cc5c(cc4c[n+](C)c3c2cc1OC)OCO5` was tested. Which T/C (endpoint: median survival time, dose: 1.25 mg/kg/injection, schedule: Q01DX009 (ip), vehicle: Klucel (hydroxypropylcellulose) (HPC), higher = longer survival) did it give?
**A.** 108 % of control

**Q.** And the T/C (endpoint: median survival time, dose: 2.5 mg/kg/injection, schedule: Q01DX009 (ip), vehicle: Klucel (hydroxypropylcellulose) (HPC), higher = longer survival)?
**A.** 92 % of control

**Q.** And the T/C (endpoint: median survival time, dose: 5.0 mg/kg/injection, schedule: Q01DX009 (ip), vehicle: Klucel (hydroxypropylcellulose) (HPC), higher = longer survival)?
**A.** 102 % of control

**Q.** What about the T/C (endpoint: median survival time, dose: 10.0 mg/kg/injection, schedule: Q01DX009 (ip), vehicle: Klucel (hydroxypropylcellulose) (HPC), higher = longer survival) of the same compound?
**A.** 99 % of control

**Q.** Which results are given for `CC(=O)CC(=O)Nc1ccc(Cl)cc1`?
**A.** T/C (endpoint: mean tumor weight, dose: 111.0 mg/kg/injection, schedule: Q01DX011 (ip), vehicle: other, higher = larger tumour): 151 % of control; T/C (endpoint: mean tumor weight, dose: 166.0 mg/kg/injection, schedule: Q01DX011 (ip), vehicle: other, higher = larger tumour): 156 % of control; T/C (endpoint: mean tumor weight, dose: 250.0 mg/kg/injection, schedule: Q01DX011 (ip), vehicle: other, higher = larger tumour): 121 % of control; T/C (endpoint: mean tumor weight, dose: 500.0 mg/kg/injection, schedule: Q01DX011 (ip), vehicle: other, higher = larger tumour): 64 % of control

**Q.** `COc1cc(NS(C)(=O)=O)ccc1Nc1c2ccccc2nc2ccccc12` was tested. Which T/C (endpoint: median survival time, dose: 0.13 mg/kg/injection, schedule: Q01DX009 (ip), vehicle: other, higher = longer survival) did it give?
**A.** 117 % of control

**Q.** What about the T/C (endpoint: median survival time, dose: 0.5 mg/kg/injection, schedule: Q01DX009 (ip), vehicle: other, higher = longer survival) of the same compound?
**A.** 118 % of control

**Q.** And the T/C (endpoint: median survival time, dose: 0.78 mg/kg/injection, schedule: Q01DX009 (ip), vehicle: saline, higher = longer survival)?
**A.** 96 % of control

**Q.** What about the T/C (endpoint: median survival time, dose: 1.25 mg/kg/injection, schedule: Q01DX011 (ip), vehicle: Klucel (hydroxypropylcellulose) (HPC), higher = longer survival) of the same compound?
**A.** 91 % of control

**Q.** And the T/C (endpoint: median survival time, dose: 1.56 mg/kg/injection, schedule: Q01DX009 (ip), vehicle: saline, higher = longer survival)?
**A.** 100 % of control

**Q.** And the T/C (endpoint: median survival time, dose: 2.5 mg/kg/injection, schedule: Q01DX011 (ip), vehicle: Klucel (hydroxypropylcellulose) (HPC), higher = longer survival)?
**A.** 96 % of control

**Q.** What about the T/C (endpoint: median survival time, dose: 3.12 mg/kg/injection, schedule: Q01DX009 (ip), vehicle: Klucel (hydroxypropylcellulose) (HPC), higher = longer survival) of the same compound?
**A.** 118 % of control

**Q.** What about the T/C (endpoint: median survival time, dose: 3.13 mg/kg/injection, schedule: Q01DX009 (ip), vehicle: saline, higher = longer survival) of the same compound?
**A.** 103 % of control and 107 % of control

**Q.** What about the T/C (endpoint: median survival time, dose: 6.25 mg/kg/injection, schedule: Q01DX009 (ip), vehicle: Klucel (hydroxypropylcellulose) (HPC), higher = longer survival) of the same compound?
**A.** 115 % of control

**Q.** And the T/C (endpoint: median survival time, dose: 12.5 mg/kg/injection, schedule: Q01DX009 (ip), vehicle: Klucel (hydroxypropylcellulose) (HPC), higher = longer survival)?
**A.** 214 % of control

**Q.** What about the T/C (endpoint: median tumor weight (est.), dose: 1.25 mg/kg/injection, schedule: Q01DX011 (ip), vehicle: Klucel (hydroxypropylcellulose) (HPC), higher = larger tumour) of the same compound?
**A.** 88 % of control

**Q.** What about the T/C (endpoint: median tumor weight (est.), dose: 2.5 mg/kg/injection, schedule: Q01DX011 (ip), vehicle: Klucel (hydroxypropylcellulose) (HPC), higher = larger tumour) of the same compound?
**A.** 110 % of control

**Q.** And the T/C (endpoint: median tumor weight (est.), dose: 5.0 mg/kg/injection, schedule: Q01DX011 (ip), vehicle: Klucel (hydroxypropylcellulose) (HPC), higher = larger tumour)?
**A.** 504 % of control

**Q.** Which results are given for `O=C(O)CCCc1ccc(N(CCCl)CCCl)cc1`?
**A.** T/C (endpoint: mean tumor weight, dose: 3.13 mg/kg/injection, schedule: Q01DX011 (ip), vehicle: saline, higher = larger tumour): 66 % of control; T/C (endpoint: mean tumor weight, dose: 6.25 mg/kg/injection, schedule: Q01DX011 (ip), vehicle: saline, higher = larger tumour): 54 % of control; T/C (endpoint: mean tumor weight, dose: 7.5 mg/kg/injection, schedule: Q01DX011 (ip), vehicle: carboxymethylcellulose (CMC), higher = larger tumour): 55 % of control; T/C (endpoint: mean tumor weight, dose: 12.5 mg/kg/injection, schedule: Q01DX011 (ip), vehicle: saline, higher = larger tumour): 26 % of control; T/C (endpoint: median survival time, dose: 1.0 mg/kg/injection, schedule: Q01DX009 (ip), vehicle: saline with Tween-80, higher = longer survival): 113 % of control; T/C (endpoint: median survival time, dose: 2.0 mg/kg/injection, schedule: Q01DX009 (ip), vehicle: saline with Tween-80, higher = longer survival): 101 % of control and 124 % of control; T/C (endpoint: median survival time, dose: 4.0 mg/kg/injection, schedule: Q01DX001 (ip), vehicle: saline with Tween-80, higher = longer survival): 94 % of control; T/C (endpoint: median survival time, dose: 8.0 mg/kg/injection, schedule: Q01DX001 (ip), vehicle: saline with Tween-80, higher = longer survival): 112 % of control; T/C (endpoint: median survival time, dose: 8.0 mg/kg/injection, schedule: Q01DX009 (ip), vehicle: saline with Tween-80, higher = longer survival): 110 % of control and 114 % of control; T/C (endpoint: median survival time, dose: 16.0 mg/kg/injection, schedule: Q01DX001 (ip), vehicle: saline with Tween-80, higher = longer survival): 107 % of control; T/C (endpoint: median survival time, dose: 32.0 mg/kg/injection, schedule: Q01DX001 (ip), vehicle: saline with Tween-80, higher = longer survival): 89 % of control

**Q.** How did the T/C (endpoint: median survival time, dose: 4.0 mg/kg/injection, schedule: Q01DX009 (ip), vehicle: saline, higher = longer survival) turn out when `O=C(O)CP(=O)(O)O` was run?
**A.** 105 % of control

**Q.** What about the T/C (endpoint: median survival time, dose: 8.0 mg/kg/injection, schedule: Q01DX009 (ip), vehicle: saline, higher = longer survival) of the same compound?
**A.** 97 % of control

**Q.** What about the T/C (endpoint: median survival time, dose: 16.0 mg/kg/injection, schedule: Q01DX009 (ip), vehicle: saline, higher = longer survival) of the same compound?
**A.** 106 % of control

**Q.** What about the T/C (endpoint: median survival time, dose: 32.0 mg/kg/injection, schedule: Q01DX009 (ip), vehicle: saline, higher = longer survival) of the same compound?
**A.** 91 % of control

**Q.** And the T/C (endpoint: median survival time, dose: 64.0 mg/kg/injection, schedule: Q01DX009 (ip), vehicle: saline, higher = longer survival)?
**A.** 87 % of control

**Q.** And the T/C (endpoint: median survival time, dose: 128.0 mg/kg/injection, schedule: Q01DX009 (ip), vehicle: saline, higher = longer survival)?
**A.** 86 % of control

Source: PubChem BioAssay AID270 (DTP/NCI, 2004)
